Results as given in patent publication US6936585B2, “Corticotropin releasing factor 2 receptor agonists” (priority 2002, dated 2005).
Peptide text beside a SMILES is read from it.

Columns and labels:
[1] = target: T1, CRF2R (Homo sapiens, UniProt Q13324); test: CRF2R agonist activation (EC50 / Emax), called comparative CRF binding; format: cell-based; details: read-out: CRF2R Emax
T1 sequence (Q13324 1-411): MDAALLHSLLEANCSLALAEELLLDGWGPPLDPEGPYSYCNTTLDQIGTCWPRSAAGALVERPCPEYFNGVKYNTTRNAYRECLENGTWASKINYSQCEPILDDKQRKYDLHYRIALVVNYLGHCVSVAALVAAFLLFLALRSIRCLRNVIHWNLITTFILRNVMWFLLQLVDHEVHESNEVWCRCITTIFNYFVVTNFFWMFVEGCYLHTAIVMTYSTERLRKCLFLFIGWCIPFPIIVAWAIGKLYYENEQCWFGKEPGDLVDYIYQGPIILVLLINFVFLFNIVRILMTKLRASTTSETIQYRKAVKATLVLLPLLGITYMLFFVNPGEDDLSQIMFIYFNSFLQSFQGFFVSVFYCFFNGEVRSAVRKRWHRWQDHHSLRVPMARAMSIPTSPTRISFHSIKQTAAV
Outline: (§1)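 Read-out is Gαs-driven cAMP induction, quantified directly in lysates or through CRE-reporter gene expression, after treating CRF1R- or CRF2R-expressing cells with peptide. Vehicle-treated cells serve as the comparison.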

[2] = target: T2, CRF1R (Homo sapiens, UniProt P34998); test: CRF1R agonist activation (EC50 / Emax), called comparative CRF binding; format: cell-based; details: read-out: CRF1R Emax
T2 sequence (P34998 24-415): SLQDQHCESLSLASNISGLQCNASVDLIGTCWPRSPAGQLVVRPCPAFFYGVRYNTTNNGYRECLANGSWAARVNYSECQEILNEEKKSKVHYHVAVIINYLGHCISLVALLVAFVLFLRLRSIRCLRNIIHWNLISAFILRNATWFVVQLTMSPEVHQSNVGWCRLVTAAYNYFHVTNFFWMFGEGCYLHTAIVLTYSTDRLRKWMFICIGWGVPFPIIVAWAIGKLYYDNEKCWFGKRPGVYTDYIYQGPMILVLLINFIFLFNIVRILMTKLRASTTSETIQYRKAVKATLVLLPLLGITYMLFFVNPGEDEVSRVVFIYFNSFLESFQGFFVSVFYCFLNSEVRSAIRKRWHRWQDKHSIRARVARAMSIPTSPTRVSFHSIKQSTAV
Outline: as §1

Structure (SMILES) | Emax [1] [%] | Emax [2] [%]
CC[C@H](C)[C@H](N)C(=O)N[C@H](C(=O)N[C@@H](CC(C)C)C(=O)N[C@@H](CO)C(=O)N[C@@H](CC(C)C)C(=O)N[C@@H](CC(=O)O)C(=O)N[C@H](C(=O)N1CCC[C@H]1C(=O)N[C@H](C(=O)NCC(=O)N[C@@H](CC(C)C)C(=O)N[C@@H](CC(C)C)C(=O)N[C@@H](CCC(N)=O)C(=O)N[C@H](C(=O)N[C@@H](CC(C)C)C(=O)N[C@@H](CC(C)C)C(=O)N[C@@H](CCC(=O)O)C(=O)N[C@H](C(=O)N[C@@H](CCC(=O)O)C(=O)N[C@@H](CCCCN)C(=O)N[C@@H](CCC(N)=O)C(=O)N[C@@H](CCC(=O)O)C(=O)N[C@@H](CCCCN)C(=O)N[C@@H](CCC(=O)O)C(=O)N[C@@H](CCCCN)C(=O)N[C@@H](CCC(N)=O)C(=O)N[C@@H](CCC(N)=O)C(=O)N[C@@H](C)C(=O)N[C@@H](C)C(=O)N[C@@H](CC(N)=O)C(=O)N[C@@H](CC(N)=O)C(=O)N[C@@H](CCCNC(=N)N)C(=O)N[C@@H](CC(C)C)C(=O)N[C@@H](CC(C)C)C(=O)N[C@@H](CC(C)C)C(=O)N[C@@H](CC(=O)O)C(=O)N[C@H](C(=O)N[C@H](C(N)=O)[C@@H](C)CC)[C@@H](C)O)[C@@H](C)CC)[C@@H](C)CC)[C@@H](C)CC)C(C)C)C(C)C [compound 158] (H-IVLSLDVPIGLLQILLEIEKQEKEKQQAANNRLLLDTI-NH2) | 89 | 15
CC[C@H](C)[C@H](NC(=O)[C@H](C)NC(=O)[C@H](CC(N)=O)NC(=O)[C@H](CCC(N)=O)NC(=O)[C@H](CCC(=O)O)NC(=O)[C@H](C)NC(=O)[C@H](CCCNC(=N)N)NC(=O)[C@H](CCC(=O)O)NC(=O)[C@H](CCCNC(=N)N)NC(=O)[C@H](CCC(N)=O)NC(=O)[C@H](CO)NC(=O)[C@H](CCC(N)=O)NC(=O)[C@@H](NC(=O)[C@H](CCCCN)NC(=O)[C@H](CCC(=O)O)NC(=O)[C@H](CC(C)C)NC(=O)[C@H](CCC(=O)O)NC(=O)[C@H](CC(C)C)NC(=O)[C@H](CC(C)C)NC(=O)[C@@H](NC(=O)[C@H](CCCNC(=N)N)NC(=O)[C@H](CC(C)C)NC(=O)[C@H](CC(C)C)NC(=O)[C@H](CCC(N)=O)NC(=O)[C@H](CC(C)C)NC(=O)[C@@H]1CCCN1C(=O)[C@H](CC(C)C)NC(=O)[C@H](CC(=O)O)NC(=O)[C@@H](NC(=O)[C@H](CO)NC(=O)[C@H](CC(C)C)NC(=O)[C@H](CO)NC(=O)[C@@H]1CCCN1C(=O)[C@H](CC(N)=O)NC(=O)[C@@H](N)CC(=O)O)[C@@H](C)CC)[C@@H](C)O)[C@@H](C)O)C(=O)N[C@H](C(=O)N[C@@H](Cc1ccccc1)C(=O)N[C@@H](C)C(=O)N[C@@H](CO)C(=O)N[C@H](C(N)=O)C(C)C)[C@@H](C)CC [compound 342] (H-DNPSLSIDLPLQLLRTLLELEKTQSQRERAEQNAIIFASV-NH2; N-terminus assumed) | 92.2 | 19.6
